In article PMC2779714 (Science signaling, 2009):

What was measured:
TRPM2 [1] = biological target: TRPM2 (Mus musculus, UniProt Q91YD4); experiment: whole-cell patch clamp with intracellular ADPR; assay type: cell-based
TRPM2 [2] = biological target: TRPM2 (Rattus norvegicus, UniProt E9PTA2); experiment: whole-cell patch clamp with intracellular ADPR; assay type: cell-based
Sequence of TRPM2 (Rattus norvegicus, UniProt E9PTA2) (E9PTA2 whole entry): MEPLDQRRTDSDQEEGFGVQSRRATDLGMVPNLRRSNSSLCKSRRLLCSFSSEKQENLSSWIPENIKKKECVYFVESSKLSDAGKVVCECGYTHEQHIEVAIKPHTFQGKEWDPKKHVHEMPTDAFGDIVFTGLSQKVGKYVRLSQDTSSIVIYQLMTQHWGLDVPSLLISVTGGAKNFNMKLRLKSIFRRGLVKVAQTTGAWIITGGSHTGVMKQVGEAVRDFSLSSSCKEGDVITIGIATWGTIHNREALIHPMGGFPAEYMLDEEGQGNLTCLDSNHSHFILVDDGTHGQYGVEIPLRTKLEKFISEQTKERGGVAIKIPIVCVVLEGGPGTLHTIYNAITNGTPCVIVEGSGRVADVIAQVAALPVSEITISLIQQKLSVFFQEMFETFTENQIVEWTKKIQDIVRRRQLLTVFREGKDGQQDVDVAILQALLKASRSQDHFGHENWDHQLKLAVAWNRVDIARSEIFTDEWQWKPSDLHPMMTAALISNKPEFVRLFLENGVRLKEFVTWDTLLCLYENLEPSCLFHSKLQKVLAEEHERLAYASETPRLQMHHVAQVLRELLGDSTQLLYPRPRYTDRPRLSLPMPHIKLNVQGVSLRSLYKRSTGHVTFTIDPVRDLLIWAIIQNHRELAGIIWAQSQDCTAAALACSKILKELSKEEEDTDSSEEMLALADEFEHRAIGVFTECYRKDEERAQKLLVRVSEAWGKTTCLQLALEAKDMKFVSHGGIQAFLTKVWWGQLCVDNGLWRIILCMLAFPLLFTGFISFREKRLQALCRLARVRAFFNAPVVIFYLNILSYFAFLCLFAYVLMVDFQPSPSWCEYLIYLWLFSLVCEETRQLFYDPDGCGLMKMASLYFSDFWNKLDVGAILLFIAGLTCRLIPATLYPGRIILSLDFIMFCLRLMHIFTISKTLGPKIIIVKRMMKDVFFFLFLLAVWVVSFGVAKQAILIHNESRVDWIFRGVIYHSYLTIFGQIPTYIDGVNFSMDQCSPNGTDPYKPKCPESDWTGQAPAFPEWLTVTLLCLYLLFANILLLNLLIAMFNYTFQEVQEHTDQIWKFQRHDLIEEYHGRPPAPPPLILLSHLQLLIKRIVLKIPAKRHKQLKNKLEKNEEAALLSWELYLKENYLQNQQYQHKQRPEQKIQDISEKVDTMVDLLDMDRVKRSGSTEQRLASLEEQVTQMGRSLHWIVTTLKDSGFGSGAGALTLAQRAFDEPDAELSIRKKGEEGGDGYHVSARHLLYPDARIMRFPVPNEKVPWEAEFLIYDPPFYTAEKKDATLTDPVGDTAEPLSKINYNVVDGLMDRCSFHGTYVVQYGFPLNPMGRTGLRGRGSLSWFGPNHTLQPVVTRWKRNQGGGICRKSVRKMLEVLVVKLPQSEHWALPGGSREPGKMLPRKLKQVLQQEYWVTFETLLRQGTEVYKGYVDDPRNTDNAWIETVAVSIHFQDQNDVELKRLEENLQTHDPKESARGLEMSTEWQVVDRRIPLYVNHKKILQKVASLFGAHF

Sequence of TRPM2 (Mus musculus, UniProt Q91YD4) (Q91YD4 whole entry): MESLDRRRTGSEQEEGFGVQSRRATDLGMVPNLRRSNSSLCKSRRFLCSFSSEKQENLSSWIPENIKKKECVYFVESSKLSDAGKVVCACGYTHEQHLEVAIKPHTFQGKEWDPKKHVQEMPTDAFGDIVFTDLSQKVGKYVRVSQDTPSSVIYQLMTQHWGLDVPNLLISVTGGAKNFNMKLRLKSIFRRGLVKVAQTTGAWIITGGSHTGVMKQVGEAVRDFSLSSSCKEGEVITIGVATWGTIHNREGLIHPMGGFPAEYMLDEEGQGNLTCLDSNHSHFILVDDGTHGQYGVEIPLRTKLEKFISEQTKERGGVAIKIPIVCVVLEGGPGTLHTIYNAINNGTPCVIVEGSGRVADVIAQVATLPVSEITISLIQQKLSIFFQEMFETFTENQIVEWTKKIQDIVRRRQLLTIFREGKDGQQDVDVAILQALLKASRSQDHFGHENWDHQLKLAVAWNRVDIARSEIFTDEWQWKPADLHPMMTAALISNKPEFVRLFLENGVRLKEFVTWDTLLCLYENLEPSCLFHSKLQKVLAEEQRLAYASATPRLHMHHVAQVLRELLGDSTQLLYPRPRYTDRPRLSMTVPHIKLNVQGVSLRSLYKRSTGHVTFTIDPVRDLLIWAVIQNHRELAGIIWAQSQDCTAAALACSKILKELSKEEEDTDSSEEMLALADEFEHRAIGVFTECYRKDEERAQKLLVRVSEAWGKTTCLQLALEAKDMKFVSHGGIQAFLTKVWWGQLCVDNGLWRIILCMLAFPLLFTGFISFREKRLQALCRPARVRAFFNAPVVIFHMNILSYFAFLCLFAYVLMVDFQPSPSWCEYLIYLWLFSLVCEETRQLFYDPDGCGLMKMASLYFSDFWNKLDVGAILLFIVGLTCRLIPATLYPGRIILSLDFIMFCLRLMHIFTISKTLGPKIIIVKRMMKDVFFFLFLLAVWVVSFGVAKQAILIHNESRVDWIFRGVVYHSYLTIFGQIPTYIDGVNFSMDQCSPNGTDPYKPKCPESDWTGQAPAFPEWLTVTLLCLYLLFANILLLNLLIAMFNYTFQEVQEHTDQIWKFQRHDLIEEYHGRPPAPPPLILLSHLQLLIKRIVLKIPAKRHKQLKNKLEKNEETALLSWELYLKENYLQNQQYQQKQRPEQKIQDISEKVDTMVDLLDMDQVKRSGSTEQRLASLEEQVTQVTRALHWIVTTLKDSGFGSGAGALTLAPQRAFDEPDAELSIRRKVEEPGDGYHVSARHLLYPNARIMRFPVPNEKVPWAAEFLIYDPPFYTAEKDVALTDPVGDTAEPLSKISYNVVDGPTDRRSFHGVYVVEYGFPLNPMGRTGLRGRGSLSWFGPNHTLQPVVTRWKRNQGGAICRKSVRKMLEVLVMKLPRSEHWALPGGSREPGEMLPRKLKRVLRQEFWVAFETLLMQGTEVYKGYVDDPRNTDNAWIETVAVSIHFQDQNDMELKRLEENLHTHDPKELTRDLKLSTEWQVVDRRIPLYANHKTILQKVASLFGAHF

Q: For `Nc1ncnc2c1ncn2[C@@H]1O[C@H](COP(=O)(O)OP(=O)(O)OC[C@H]2OC(O)[C@H](O)[C@@H]2O)[C@@H](O)[C@H]1O` (some centres unmarked) [ADPR], which EC50 (TRPM2 [1]) is on record?
A: Its EC50 is 360 µM.

Q: And the EC50 (TRPM2 [2])?
A: The EC50 was 110 µM.
